Test results as given in patent publication US20250186336A1, “METHOD OF TREATING WET AGE-RELATED MACULAR DEGENERATION” (EYEPOINT PHARMACEUTICALS, INC., priority 2022, published 2025).
Where two headings read alike, the source gives them in different places.

Key:
[1] = tested on: Laser-Induced Choroidal Neovascularization (CNV); assay: Swine model of laser-induced choroidal neovascularization, safety and efficacy (Example 7); format: in vivo
Procedure: Safety and efficacy of a vorolanib insert were evaluated in a Swine (Mini-pig) Model of Laser-Induced Choroidal Neovascularization (CNV). The primary objective of this study was to evaluate the long-term safety and inhibition of vascular permeability and neovascularization in a laser-induced model of choroidal neovascularization (CNV) using a vorolanib insert in swine.
On the day of lasering (Groups 1-4) animals were treated with an 810 nm diode laser delivered through an indirect ophthalmoscope. Approximately 6 single laser spots were placed between retinal veins. Both eyes underwent laser treatment according to the schedule in the table above.
On the day of intravitreal injections animals were anesthetized and the eyes were aseptically prepared. […] Animals were allowed to recover normally from the procedure. The pigs were given a topical drop of antibiotic ophthalmic solution 4-6 hours later, and then BID for 2 additional days with at least 6 hours between doses. Animals were dosed on either Day 0 immediately following laser CNV induction or 7 days prior to laser CNV induction according to the schedule in the table above. […]
At time points indicated by the experimental design table, following final data collections, animals were euthanized. Histology was evaluated for eyes from Groups 5-6.

[2] = Solubility of vorolanib in water; format: physicochemical
Source text: Vorolanib has the chemical designation (S,Z)—N-(1-(Dimethylcarbamoyl) pyrrolidin-3-yl)-5-((5-fluoro-2-oxoindolin-3-ylidene)methyl)-2,4-dimethyl-1H-pyrrole-3-carboxamide. Synonyms include the term “X-82”. The molecular formula is C23H26FN5O3. […]

[3] = Intravitreal pharmacokinetic study of vorolanib insert (Example 5A); format: in vivo, Male Dutch Belted Rabbits; settings: for vitreous level of vorolanib at steady state: intravitreal; for AUC(0-t): read-out: vitreous AUClast
Procedure: An Intravitreal Pharmacokinetic Study was performed in Male Dutch Belted Rabbits. The objective of this study was to characterize the plasma and ocular tissue pharmacokinetics of a vorolanib insert following bilateral intravitreal injection on Day 1. Animals were evaluated up to 24 months following placement of the intravitreal insert.
The low dose group (1) received 3 inserts per eye for a total dose of 630 μg per eye. The high dose group (2) animals received 6 inserts per eye given in 2 separate injections (3 inserts per injection) for a total dose of 1,260 μg per eye.
Prior to each scheduled sacrifice point, one whole blood sample was collected from a targeted 2 animals per group via puncture of a marginal ear vein. Samples were tested for levels of vorolanib and its metabolite. Two animals per group were euthanized on day 1 at 6, 12, 24 and 48 hours, on days 7 and 14, and at 1, 2, 4, 6, 8, 16 and 24 months.

[4] = Intravitreal pharmacokinetic study of vorolanib insert (Example 5B); format: in vivo, Dutch Belted Rabbits
Procedure: Another Intravitreal Pharmacokinetic Study was performed in Dutch Belted Rabbits. The objective of this study was to evaluate the plasma and ocular pharmacokinetics of a vorolanib insert following bilateral intravitreal injection in rabbit eyes. Animals were evaluated up to 12 months following placement of the intravitreal insert.
Dutch Belted rabbits were administered vorolanib inserts in each eye by intravitreal injection. Group 1 eyes received 1 insert containing 643 μg of vorolanib, and Group 2 eyes received 2 inserts containing 900 μg total. Blood samples were collected at 2, 7, 14, and 28 days and then once monthly for months 2-12. Inserts were recovered at 2, 7, and 14 days and then at 1, 2, 4, 6, 8, 10, and 12 months. Residual vorolanib levels were determined in all explants using high-performance liquid chromatography. The vorolanib release rate was estimated based on residual levels in the explants. Plasma and ocular tissues were separated and analyzed for vorolanib and its metabolite using liquid chromatography mass spectrometry.

[5] = 18 month intravitreal toxicity and plasma pharmacokinetics study (Example 6); format: in vivo
Procedure: An 18 month intravitreal toxicity study for the insert was also performed in 80 Dutch Belted rabbits (40 male and 40 female). Animals were evaluated for a period of 6 and 18 months following placement of intravitreal inserts. The objective was to characterize the ocular toxicity, plasma pharmacokinetics and biodegradation of a vorolanib insert following bilateral intravitreal injection.
The tables below describe the group assignments and dose levels. For the toxicology groups, animals were sacrificed at 6 months and 18 months. For the plasma pharmacokinetic analysis, blood samples were collected at Days 1, 3, and 7 and then 1, 2, 3, 4, 5, 6, 12, 14, 16 and 18 Months.
The placebo group (1) animals received two placebo inserts by injection in each eye. The low dose group (2) animals received 2 inserts in each eye. The mid dose group (3) animals received 3 inserts in each eye given in 2 separate injections. The high dose group (4) animals received 4 inserts in each eye given in 2 separate injections (2 inserts/injection). The highest dose group (5) animals received 6 inserts in each eye given in 2 separate injections (3 inserts/injection).
At each scheduled timepoint, whole blood was collected via puncture of a marginal ear vein. Samples were analyzed for clinical pathology and plasma pharmacokinetics. Animals were euthanized according to the schedules described above. […]

[6] = male, Dutch Belted, rabbit, vitreous humor, topical or ocular, 630 ug, through day 180
[7] = male, Dutch Belted, rabbit, vitreous humor, topical or ocular, 1260 ug, through day 180

Molecule: aflibercept: VEGF inhibitor (Regeneron), intravitreal injection, comparator in the swine CNV model
- reduction in Corrected Total Lesion Fluorescence (CTLF) value ([1]; Day 7 to Day 28, aflibercept 2 mg, 50 μL/eye IVT, Day 0): largest reduction in CTLF values
- efficacy in the model ([1]; aflibercept 2 mg): normal amounts of efficacy

Molecule: Cc1[nH]c(/C=C2\C(=O)Nc3ccc(F)cc32)c(C)c1C(=O)N[C@H]1CCN(C(=O)N(C)C)C1 [vorolanib, (S,Z)—N-(1-(Dimethylcarbamoyl)pyrrolidin-3-yl)-5-((5-fluoro-2-oxoindolin-3-ylidene)methyl)-2,4-dimethyl-1H-pyrrole-3-carboxamide]
- solubility [2]: < 10 µg/mL
- change in plasma levels ([3]; after 99 days): No apparent change
- vorolanib levels in the vitreous and the retina/choroid relative to IC50 for VEGFR ([3]; at the time points tested): remained significantly above the IC50 for VEGFR
- retina/choroid level at steady state ([3]; high dose 1,260 μg per eye): 89 ng/g
- vitreous level of vorolanib at steady state ([3]; high dose 1,260 μg per eye (6 inserts)): 97 ng/mL
- steady state reached by ([3]; in vivo): ≤ 105 days
- burst period of drug release ([3]; in vivo, before steady state): 90 days
- retina/choroid level at steady state ([3]; low dose 630 μg per eye): 49 ng/g
- vitreous level of vorolanib at steady state ([3]; low dose 630 μg per eye (3 inserts)): 56 ng/mL
- Cmax [3, 6]: 232 ng/mL
- Tmax [3, 6]: 14 days
- AUC(0-t) [3, 6]: 316 µg·h/mL
- Cmax [3, 7]: 1700 ng/mL
- AUC(0-t) [3, 7]: 1580 µg·h/mL
- vorolanib plasma levels in the PK study ([3]; plasma): low pg/mL range
- concentration at 10 months ([4]; Dutch Belted, rabbit, in vivo): < 10 ng/mL
- drop in mean vorolanib concentration in ocular tissues and plasma ([4]; Dutch Belted, rabbit, in vivo): 85%-99%
- vorolanib exposure rank order ([4]; ocular tissues and plasma): choroid=retina=vitreous>aqueous humor>plasma
- concentrations in target ocular tissues (choroid and retina) relative to IC50 for VEGFR2 ([4]; through 8 months): above the IC50 for VEGFR2
- vorolanib plasma levels ([5]; plasma): low pg/mL range
- adverse findings ([5]; up to 6 inserts per eye): No adverse findings
